# “Also recorded” adds a separate entry of the source. Like-named read-outs stand apart in the source and are kept apart here. Square brackets hold non-standard residues; d marks the D form. Peptide text beside a SMILES is read from it. αMeP = C[C@@]1(C(=O)O)CCCN1
# Experiments:
# RTT tadpole model = assay: Drug screen in the RTT tadpole model (behavior, survival, seizures, toxicity); type: in vivo, Xenopus; conditions: seizures as readout
# Excerpt: (§1) Briefly, Xenopus embryos at the 4-cell stage were microinjected with Cas9 protein and guide RNA complex aimed at 3 sites of the MeCP2 gene corresponding to DNA binding and the mutation locations of the most severe patient cases. Embryos could develop into free-swimming tadpoles, and no effect on viability was observed relative to controls. Tadpoles presented a spectrum of behavioral phenotypes, including seizures. qPCR analysis confirmed a range of MeCP2 KO of 5-95% of the cells, and immunostaining of tissue sections indicated mosaic and overall reduction of MeCP2 protein levels and a-tubulin acetylation (Novak et al. 2022). Based on seizure and behavioral screens in RTT tadpoles, we evaluate the tolerability and efficacy of any number of predicted compounds. The top performing drug is vorinostat, a hydroxamic acid pan-Histone Deacetylase inhibitor (HDACi), approved for cutaneous T cell lymphoma (Novak et al., 2022). […] These six scores are then summed to provide a cumulative severity score from 0-12 (Guy et al., 2001, 2007).
# RTT tadpole transcriptomes were compared against wild-type (WT) sibling transcriptomes using our proprietary BioNav™ software, which ranked the entirety of compounds from the National Institute of Health (NIH) Library of Integrated Network-Based Cellular Signatures (LINCS) database (Keenan et al., 2018) that were predicted to shift a RTT state to a healthy state. The top candidates were downselected to include only FDA-approved drugs and screened in the RTT tadpole model using behavior, survival, and seizures as an efficacy readout, together with toxicity phenotypes. […] Vorinostat was selected for more detailed evaluation in tadpoles and mouse models. […] Ciliary morphology was also normalized by drug treatment across the entire body, and vorinostat reduced Ib4+ inflammatory cells in the GI tract (Novak et al., 2022).
# Mecp2-null male mice [1] = conditions: cited from earlier work; for Rett cumulative severity score, head-to-head comparison: older mice with extensive symptoms prior to treatment; for efficacy when starting treatment after the onset of symptoms: start P36
# RTT tadpoles (MeCP2 KD) = assay: Tadpole tracking system: swimming behavior of RTT (MeCP2 KD) tadpoles; type: in vivo, Xenopus; conditions: for swimming pattern of treated RTT tadpoles: n=5 per dish
# Procedure: FIGS. 4A-4F. FIG. 4A) Occupation density plot from tracking tadpoles swimming and resting locations over a 10-minute recording session (n=5 per 10 ml dish, at 30 frames per seconds), where high density means the tadpoles where recorded at that XY coordinate most frequently. FIG. 4A) wild-type tadpoles (WT) normal behavior is to swim along the edge of the dish in an area termed the “outer area”, while the area within the white center circle is termed the “inner area” and is mostly dark. […] Additionally, RTT tadpoles cover less distance in the outer area, preferring to cross the inner area. FIG. 4C) example of multiple parameters derived from the tracking system, highlighting metrics corresponding to behavioral phenotypes. FIG. 4D) one such metric of epoch-based entropy which captures information about the swimming behavior over a recording session and how a group diverges from the others, in this case indicating favorable improvement in RTT tadpole symptoms treated with RVL002 (epoch=15-second). FIG. 4E) one such metric is the inner area circular swimming. Locomotor assays is commonly used in mouse model of neurological diseases, it can also assess the behavior in tadpole models. Both vorinostat and RVL002 reduced the average inner dish circular swimming behavior in KD tadpoles compared to vehicle controls.
# as §1
# (§2) Using our tadpole tracking system, we evaluated the effect of vorinostat and RVL002 on WT and RTT tadpoles swimming behavior (FIGS. 4A-4F). WT tadpoles spend most of the time swimming along the outside of the dish and only occasionally cross through the center of the dish, while RTT tadpoles swim more erratically and tend to dart through the center of the dish and stop more frequently (FIG. 4A-4B, n=5 per dish). These abnormal swimming patterns could be related to motor irregularities and seizures seen in human RTT patients. […] The entropy captures deviations in swimming behavior, including distance and area explored. […] We compared the gene expression signatures of vorinostat- and RVL002-treated tadpole RTT model animals and wild type controls. In wild type animals, 100% of genes with significant expression changes (fold change >2, p<0.05) due to vorinostat treatment were accounted for by RVL002 treatment. In RTT animals, RVL002 replicated 92.5% of gene expression changes.
# RTT tadpoles = assay: Viability measurement in WT and RTT tadpoles; type: in vivo, Xenopus; conditions: RVL002 100 uM compared with vorinostat 50 uM, n=10 per condition
# HDAC = assay: HDACi activity (statement, no method)
# MeCP2-/y mice [2] = assay: Rett cumulative severity score in MeCP2-/y mice treated with RVL002; type: in vivo; conditions: 50 mg/kg P.O. daily after onset of severe symptoms (P34), vs vehicle
# Procedure: (§3) FIGS. 5A-5B. Mice (KO MeCP2^−/y or WT littermates) were treated with 50 mg/kg P.O. RVL002 daily following the onset of severe symptoms at 34 days post-natal (P34).
# (§4) Briefly, Xenopus embryos at the 4-cell stage were microinjected with Cas9 protein and guide RNA complex aimed at 3 sites of the MeCP2 gene corresponding to DNA binding and the mutation locations of the most severe patient cases. Embryos could develop into free-swimming tadpoles, and no effect on viability was observed relative to controls. Tadpoles presented a spectrum of behavioral phenotypes, including seizures. qPCR analysis confirmed a range of MeCP2 KO of 5-95% of the cells, and immunostaining of tissue sections indicated mosaic and overall reduction of MeCP2 protein levels and a-tubulin acetylation (Novak et al. 2022). Based on seizure and behavioral screens in RTT tadpoles, we evaluate the tolerability and efficacy of any number of predicted compounds. The top performing drug is vorinostat, a hydroxamic acid pan-Histone Deacetylase inhibitor (HDACi), approved for cutaneous T cell lymphoma (Novak et al., 2022). […]
# Mice (MeCP2-/y or WT littermates) were treated with 50 mg/kg P.O. RVL002 daily following the onset of severe symptoms as determined by the Rett cumulative severity scoring system (Guy et al., 2001, 2007).
# [3] = Pharmacokinetic study in C57BL/6J mice (plasma and tissues); type: in vivo
# mecp2-acss3-2KD tadpoles = assay: Tadpole tracking: double knockdown of MeCP2 and ACSS3 (mecp2-acss3-2KD); type: in vivo, Xenopus laevis; conditions: 50 μM every other day from 6 dpf, recorded at 15 dpf
# Procedure: FIGS. 6A-6C. […] Wild-type (WT), MeCP2 knockdown (mecp2-KD) and double knockdown of MeCP2 and ACSS3 (mecp2-acss3-2KD) tadpoles, were compared in the presence of absence of 50 μM RVL002 added to the swimming media every other day since 6 dpf.
# Using our tadpole tracking system, we evaluated the effect of RVL002 on WT, RTT and tadpoles deficient for both MeCP2 and ACSS3 (FIGS. 6A-6C).
# [4] = tested on: brain and muscle gene networks and pathways; assay: RNAseq of brain and muscle of dosed mice analysed with BioNav / Reactome; type: in vivo, C57B/L6 mice
# Procedure: FIGS. 2A-2B. BioNav™ plots organized by chemical structure similarity of 40,000 compounds. Differential scores of predicted drugs mimicking vorinostat- or RVLOO2-dosed mouse brain (FIG. 2A) or femoral muscle (FIG. 2B) are plotted. Cluster of HDAC inhibitors is circled (FIG. 2B).
# FIGS. 3A-3E. […] Genes associated with network level changes in mice treated with vorinostat or RVL002 were analyzed and sorted according to Reactome.org pathways (91). RVL002 engages pathways in the brain and muscle tissues similar to those resulting from vorinostat dosing (FIG. 3A). […] RVL002 engages MeCP2 pathways in the brain and muscle tissues (FIG. 3E).
# Brain and muscle tissues from these mice were submitted to RNA sequencing (RNAseq) and analyzed on our BioNav™ generated from the network model of 40,000 compounds with transcriptomic data. […] By taking our calculated interacting gene sets we identified genes and networks unique to RVL002 (FIGS. 3A-3E). The gene expression profiles of the brains of mice treated with vorinostat is largely due to its highly brain-permeable metabolite and this profile is closely mimicked by RVL002 while RVL002 increased bioavailability and biodistribution is reflected in a proportionally more extensive number of genes whose expression levels are altered. The top 4 pathways are associated with MeCP2 despite using wild-type C57B/L6 mice (Table 2), and several other pathways associated with MeCP2 are identified, albeit with lower statistical significance (Table 3).
# [5] = tested on: tadpole RTT model animals and wild type controls; assay: Gene expression signatures of vorinostat- and RVL002-treated tadpoles; type: in vivo, Xenopus
# Excerpt: as §2
# MeCP2-/y mice [6] = assay: Optomotor assay in MeCP2-/y mice treated with RVL002; type: in vivo; conditions: 50 mg/kg P.O. daily from P34
# Procedure: as §3
# Mecp2-null male mice [7] = assay: Vorinostat and trofinetide in the MeCP2-null mouse model; type: in vivo; conditions: daily IP from P30
# Excerpt: as §4
# Using trofinetide as a positive control, we evaluated the feasibility of initiating drug dosing starting at 30 days post-natal (P30), unlike the majority of RTT pre-clinical studies starting before the onset of symptoms. […] We evaluated the comparative efficacy of oral vs. IP dosing of vorinostat in MeCP2-null mice starting at 36 days post-natal (P36), well after the onset of symptoms, to better mimic clinical presentation of RTT patients.
# [8] = Pharmacokinetic (PK) assay of vorinostat, oral vs. IP; type: in vivo
# [9] = tested on: RTT models (MeCP2 deficit); conditions: cited from earlier work
# tadpole proteome = conditions: whole organism Thermal Proteome Profiling; cited from earlier work
# microtubule = assay: Microtubule polymerization assays; type: biochemical
compound,measurement,setting,value
"C[C@@]1(C(=O)N[C@@H](CCC(=O)O)C(=O)O)CCCN1C(=O)CN [Trofinetide, trofinetide] (H-Gly-[αMeP]-Glu-OH)",reversal of RTT symptoms in RTT tadpole screen,RTT tadpole model,"showed efficacy, albeit lower than the predicted drugs"
same,"Rett cumulative severity score, head-to-head comparison",Mecp2-null male mice [1],did not improve the cumulative severity score
same,efficacy when starting treatment after the onset of symptoms,Mecp2-null male mice [1]; trofinetide,failed to show efficacy
"O=C(O)CCC(=O)Nc1ccccc1 [RVL002, succinanilic acid]",reduction in inner dish circular swimming compared to vehicle dosed KDs,"RTT tadpoles (MeCP2 KD); RTT KD tadpoles, 50 μM",78%
same,epoch-based entropy of swimming behavior,"RTT tadpoles (MeCP2 KD); RTT tadpoles, 15-second epoch",rescue the behavior of RTT tadpoles
same,swimming pattern of treated RTT tadpoles,RTT tadpoles (MeCP2 KD); RTT tadpoles,adopt more circular motion and stop less frequently
same,tolerability and viability of RTT tadpoles,RTT tadpoles,well tolerated and improves the viability of RTT tadpoles
same,HDACi activity,HDAC,lacks HDACi activity
same,Rett cumulative severity score,MeCP2-/y mice [2],delayed the progression in severity of behavioral and physiological phenotypes; also recorded: significantly reduce the severity of the Rett syndrome phenotypes
same,RVL002/vorinostat Ratio of T1/2,"[3]; mouse, in vivo",2.6
same,RVL002/vorinostat Ratio of Tmax,"[3]; mouse, in vivo",0.8
same,"biodistribution, crossing the blood brain barrier","[3]; mouse, in vivo, 50 mg/kg",better biodistribution including in crossing the blood brain barrier
same,AUC(0-inf),"[3]; mouse, in vivo, ip, 50 mg/kg",11600 ng·h/mL
same,AUC(0-t),"[3]; mouse, in vivo, ip, 50 mg/kg",11800 ng·h/mL
same,Cmax,"[3]; mouse, in vivo, ip, 50 mg/kg",12300 ng/mL
same,Tmax,"[3]; mouse, in vivo, ip, 50 mg/kg",0.3 h
same,half-life,"[3]; mouse, in vivo, ip, 50 mg/kg",3.3 h
same,"response across exploratory behavior, swimming velocity and number of tadpoles in a school",mecp2-acss3-2KD tadpoles,did not respond
same,muscle RNAseq differences in the cluster of HDAC inhibitors (BioNav),"[4]; mouse femoral muscle, 50 mg/kg p.o.",acts through non-HDAC-mediated pathways
same,Reactome pathways of genes unique/responding to RVL002,"[4]; wild-type mice, brain and muscle (Tables 2, 3)",MeCP2-pathway-mediated effect
same,gene expression changes of vorinostat replicated by RVL002,[5]; RTT animals,92.5%
same,genes with significant expression changes due to vorinostat treatment accounted for by RVL002 treatment,"[5]; wild type animals, fold change >2, p<0.05",100%
same,optomotor assay,MeCP2-/y mice [6],delayed the progression in severity of behavioral and physiological phenotypes
"O=C(CCCCCCC(=O)Nc1ccccc1)NO [Vorinostat, vorinostat]",reduction in average inner dish swimming compared to vehicle dosed KDs,"RTT tadpoles (MeCP2 KD); RTT KD tadpoles, 5 μM",42%
same,swimming pattern of treated RTT tadpoles,RTT tadpoles (MeCP2 KD); RTT tadpoles,patterns suggestive of darting and seizure are still observed
same,"efficacy by Rett cumulative severity scoring system, 50 vs 100 mg/kg",Mecp2-null male mice [7],better efficacy at 50 mg/kg
same,"Y-maze performance, brain and GI tubulin acetylation normalization, inflammatory cytokine levels, colon goblet cells inflammation",Mecp2-null male mice [7]; vorinostat vs trofinetide 75 mg/kg,outperformed trofinetide
same,Tmax,"[3]; C57BL/6J mice, 50 mg/kg intraperitoneally, mean",0.3 h
same,"biodistribution, crossing the blood brain barrier","[3]; mouse, in vivo, 50 mg/kg",does not efficiently cross the blood brain barrier
same,AUC(0-inf),"[3]; mouse, in vivo, ip, 50 mg/kg",640 ng·h/mL
same,AUC(0-t),"[3]; mouse, in vivo, ip, 50 mg/kg",632 ng·h/mL
same,Cmax,"[3]; mouse, in vivo, ip, 50 mg/kg",713 ng/mL
same,half-life,"[3]; mouse, in vivo, ip, 50 mg/kg",1.3 h
same,release profile after oral dosing,[8],more sustained release of vorinostat at lower concentrations
same,abnormal cilia morphology in the olfactory bulb,[9]; MeCP2 deficit,reversed
same,Ib4+ inflammatory cells in the GI tract,[9]; RTT models,reduced
same,a-tubulin acetylation in brain and elsewhere in the body,[9]; RTT models,normalized
same,reversal of RTT symptoms in RTT tadpole screen,RTT tadpole model,stronger reversal of RTT symptoms at nontoxic concentrations
same,overlap of vorinostat with RVL002 in HDAC associated pathways,[4]; muscle tissues (FIG. 3D),97.3%
same,efficacy when starting treatment after the onset of symptoms,Mecp2-null male mice [1]; IP delivery,failed to show efficacy
same,"Rett cumulative severity score, head-to-head comparison",Mecp2-null male mice [1],effective improvement
same,efficacy when starting treatment after the onset of symptoms,Mecp2-null male mice [1]; oral dosing,improved efficacy
same,"α- and β-tubulins, acetyl CoA synthetase 3, ribosome protein S6 as targets",tadpole proteome,"significant, direct targets"
same,microtubule polymerization,microtubule,mild microtubule polymerization effects
ivermectin,reversal of RTT symptoms in RTT tadpole screen,RTT tadpole model,stronger reversal of RTT symptoms at nontoxic concentrations
same,"α- and β-tubulins, acetyl CoA synthetase 3, ribosome protein S6 as targets",tadpole proteome,"significant, direct targets"
same,microtubule polymerization,microtubule,mild microtubule polymerization effects

# Source: patent US20260283990A1, “COMPOUNDS FOR TREATING RETT SYNDROME AND OTHER DISORDERS” (UNRAVEL BIOSCIENCES, INC., priority 2023, published 2026)
